These results are taken from US6472213B1, “Shuttle vectors for the introduction of DNA into mycobacteria and utilization of such bacteria as vaccines” (Institut National de la Sante et de la Recherche Medicale …, priority 1994, dated 2002).

Experiment [1] deals with non-transformed control mycobacteria. Type of experiment: cell-based, M. smegmatis, M. bovis BCG, M. tuberculosis.
Experiment [2] deals with mycobacteria carrying the plasmid pMR001. It is filed as cell-based, M. smegmatis, M. bovis BCG, M. tuberculosis.
The subject of experiment [3] is pVN2-carrying mycobacteria. It is filed as cell-based, M. smegmatis, M. bovis BCG, M. tuberculosis.
Experiment [4] concerns Mycobacterium smegmatis carrying plasmid pVN3. Briefly: Resistance to arsenic conferred by plasmid pVN3. Type of experiment: cell-based. The settings on record: pVN3 in Mycobacterium smegmatis.

As for `[Cl][Hg][Cl]` [HgCl2], in experiment [1], the “MIC Liquid medium” value amounted to 1.25 µg/mL, the “MIC Solid medium” value turned out to be 0.15 µg/mL, the “concentration at which considerable susceptibility is shown” value came to 0.15 µg/mL and the “concentration of complete inhibition of bacterial growth (MIC)” value amounted to 1 µg/mL. Also, in experiment [2], the “MIC Liquid medium” value worked out at 40 µg/mL, the “MIC Solid medium” value stood at 160 µg/mL, the “concentration at which still capable of growing” value is 20 µg/mL and the “concentration of complete inhibition of bacterial growth” value worked out at 160 µg/mL. Further, in experiment [3], the “MIC Liquid medium” value stood at 40 µg/mL, the “MIC Solid medium” value stood at 160 µg/mL and the “concentration up to which growth occurs” value is at most 40 µg/mL.
Consider arsenic nitrate [AsNO3], for which the resistance level in experiment [4] is around 10 mg/L.
